Where “and” joins values, the source holds several entries; their conditions need not be identical. Equal values may be shown once. Read-outs that look alike come from different tables or passages of the source.
Key:
[1] = system: Corn; test: Greenhouse test, combination of Procedures II and III: insecticide in-furrow or in cover layer, herbicide and antidote incorporated in cover layer (Examples 1-3, 6; Tables 1-3, 6); format: in vivo; conditions: 3 weeks
[2] = system: Corn; conditions: for antidote activity: COUNTER with BEACON, PURSUIT (POE) or XRD-498 (PPI), Tables 29-37
[3] = system: Corn
[4] = system: Corn; test: Greenhouse test Procedure VII: biocide and antidote in furrow, herbicide POE (Examples 39-42, 48-50, 56-58; Tables 38-41, 47-49, 55-57); format: in vivo; conditions: for % Inhibition Corn: C (COUNTER) + antidote in furrow
Excerpt: This procedure describes interaction among herbicide, biocide and antidote when the biocide and the antidote is applied to a soil furrow containing crop seed before emergence of the crop and the herbicide is applied after emergence of the crop and weeds. The soil and planting depth was described in Procedure IV. The containers for comparison, the biocide and antidote applications to soil furrows were described in Procedure VI. In this procedure, the seed beds of the first, second, third and fourth containers are covered by soil layers not treated with herbicide. The containers were then placed on a bench in a greenhouse and subirrigated as required for the duration of the test. The herbicide, dispersed or dissolved in water containing 0.25% v/v nonionic surfactant (X-77) was applied by a track sprayer (187 L/ha) to the emerged plants of the second, third and fourth containers about five days after planting. All treatments were run in duplicate. Plant response was observed according to Procedure IV. Variations in this procedure will be noted in the examples.
In this example, tests were conducted according to Procedure VII for the POE application of the herbicides following in-furrow application of COUNTER® 15G insecticide (BIOCIDE No. 1) and the antidote on the pre-planted test seeds. In this test, the herbicides were Nos. 1 (MON-12000), 10 (ALLY®) and #4 (HARMONY®) and the Antidote Nos. 1, 7, 12 and 33.
These in-furrow treatments comprised a 50-50 mix of blended granules of COUNTER with and without 5G granular antidotes at 7.4 + 7.4 mg/cm or 1.1 + 0.37 mg active ingredient (a.i.)/cm. The in-furrow initiation of the test was followed five (5) days later with POE application of the herbicides; observations were made eight (8) days later.
In another test, conducted simultaneously with that in Example 39, Herbicide Nos. 5 (chlorimuron ethyl, active ingredient in CLASSIC® herbicide), 7 (nicosulfuron, active ingredient in ACCENT® herbicide) and 15 (tribenuron methyl, active ingredient in EXPRESS® herbicide) were substituted as test herbicides.
In this example, using the same procedure as above, the following imidazolinone herbicides were used with the same insecticide/biocide and antidotes as above: Herb. No. 16 (imazaquin, a.i. in SCEPTER® herbicide; No. 19 (Code No. AC 222293, a.i. in ASSERT® herbicide); No. 6 (imazethapyr, a.i. in PURSUIT® herbicide and No. 18 (imazapyr, a.i. in ARSENAL® herbicide). Test results are shown in Table 40. Table 40
This example describes the testing of the above antidotes used in Examples 39-41 to safen negative synergy interactions between representative species of the class of herbicidal compounds identified as azolopyrimidine sulfonamides and COUNTER 15G. The same procedure used in the above examples was conducted in this test. In this test, the herbicides were formulated in 17% acetone and 83% water with 0.25% v/v X-77 surfactant.
In these tests (according to Procedure VII) the safeners in solution with acetone were applied in furrow to the soil, followed by COUNTER 15G granules at 227 g/305 m (8 oz./1000'). Applications were made in alternate rows in two separate 13.7 cm x 27.7 cm pans containing Dupo silt loam. Pans were seeded 1.3 cm deep, placed on benches in a greenhouse and subirrigated. BEACON was formulated in water with 0.25% v/v X-77 surfactant and applied by track sprayer at a rate of 187 L/Ha (20 gal/A). Weed species in this test were giant foxtail, shattercane and velvetleaf. The herbicide was applied five (5) days after PPI initiation and observation of test result (shown in Table 47) made eight (8) days later.
In Table 47 COUNTER 15G is abbreviated as "C" and the antidotes as "A" in the column headings which indicate the "C + A" ratios used in the tests. Control and COUNTER treatments are average of four (4) replications and COUNTER + Antidote treatments, average of 2 reps. […]

[5] = system: Giant foxtail (GIFT); test: whole plant or invertebrate; format: in vivo
[6] = system: Shattercane (SHCA); format: in vivo
[7] = system: Velvetleaf (VELE); format: in vivo, Abutilon theophrasti
[8] = C:A Ratio 20, ACCENT 0.56 Kg/Ha POE
[9] = C:A Ratio 20, BEACON 0.28 Kg/Ha POE
[10] = C:A Ratio 40, ACCENT 0.56 Kg/Ha POE
[11] = C:A Ratio 40, BEACON 0.28 Kg/Ha POE
[12] = C:A Ratio 80, ACCENT 0.56 Kg/Ha POE
[13] = C:A Ratio 80, BEACON 0.28 Kg/Ha POE
[14] = C:A Ratio 160, ACCENT 0.56 Kg/Ha POE
[15] = C:A Ratio 160, BEACON 0.28 Kg/Ha POE
[16] = Antidote 4.48 + Biocide No. 1 8.96 Kg/Ha PPI, Herb. No. 8 0.07, 5 DAP, before herbicide application
[17] = Antidote 4.48 + Biocide No. 1 8.96 Kg/Ha PPI, Herb. No. 8 0.07 POE, 13 DAP
[18] = Antidote 4.48 + Biocide No. 1 8.96 Kg/Ha PPI, Herbicide No. 7 0.28 POE, 13 days after planting
[19] = Herb. […], 5 DAP, before herbicide application
[20] = Table 14: Herbicide No. 7 (ACCENT) 0.84 Kg/Ha POE + Biocide No. 2 8.96 Kg/Ha PPI + antidote 4.48 Kg/Ha PPI, 13 days after planting, 8 days after herbicide
[21] = […], 13 days after planting, 8 days after herbicide
[22] = […], observed 10 days after herbicide application

## Cc1c(F)c(F)c(COC(=O)[C@@H]2[C@H](/C=C(\Cl)C(F)(F)F)C2(C)C)c(F)c1F (racemic) [Biocide No. 3, 2,3,5,6-tetrafluoro-4-methylbenzyl-(Z(-(1 RS, 3RS)-3-(2-Chloro-3,3,3-trifluoroprop-1-ethyl)-2,2-dimethyl-cyclopropane carboxylate, reference compound]
[1]; Ex. 3: Insecticide 3 (227g) alone
  % Injury Corn: 3%

## N#CCON=C(C#N)c1ccccc1 [Antidote No. 9, Benzeneacetonitrile, alpha-<(cyano-methoxy)imino>-]
[2]
  antidote activity: active safeners

## CNC(=O)Oc1cccc2c1OC(C)(C)C2 [Biocide No. 4, 2,3-Dihydro-2,2-dimethyl-7-benzofuranyl methylcarbamate, reference compound]
[1]; Ex. 3: Insecticide 4 (227 g) alone
  % Injury Corn: 5%

## CC1COc2ccccc2N1C(=O)C(Cl)Cl (stereo not drawn) [Antidote No. 28, 4-(Dichloroacetyl)-3,4-dihydro-3-methyl-2H-1,4-benzoxazine]
[2]; Example 29, COUNTER with BEACON and ACCENT
  safening, comparison: comparable to MON-13900 (No. 1), but less effective than MON-7400
[3]; DIAZINON + Herbicides 1, 21, 18, Example 53
  safening: Effective safening
[3]; malathion + Herbicides 1, 21, 18, Example 54
  safening: moderate to high degrees of safening

## O=C(O)COC(c1ccccc1)c1ccccc1 [compound 79]
[4]; [8]
  % Inhibition Corn: 15%
[4]; [9]
  % Inhibition Corn: 0%
[4]; [10]
  % Inhibition Corn: 20%
[4]; [11]
  % Inhibition Corn: 5%
[4]; [12]
  % Inhibition Corn: 30%
[4]; [13]
  % Inhibition Corn: 15%
[4]; [14]
  % Inhibition Corn: 45%
[4]; [15]
  % Inhibition Corn: 20%

## O=C(O)COC(c1ccccc1)c1ccccc1 [compound 78]
[4]; [8]
  % Inhibition Corn: 25%
[4]; [9]
  % Inhibition Corn: 5%
[4]; [10]
  % Inhibition Corn: 20%
[4]; [11]
  % Inhibition Corn: 5%
[4]; [12]
  % Inhibition Corn: 40%
[4]; [13]
  % Inhibition Corn: 20%
[4]; [14]
  % Inhibition Corn: 60%
[4]; [15]
  % Inhibition Corn: 20%

## CCOP(=S)(OCC)SCSCC [Biocide No. 10, O,O-Diethyl S-[(ethylthio)methyl]phosphorodithioate, reference compound]
[5]; in vivo
  % Inhibition GIFT: 30% and 20%
[6]; in vivo
  % Inhibition SHCA: 25%

## O=C1OC(=O)c2cccc3cccc1c23 [Antidote No. 5, 1H,3H-Naphtho<1,8-cd>pyran-1,3-dione]
[5]; XRD-498 + OP insecticides, Examples 24-27
  giant foxtail control: reduction in giant foxtail control

## C=CCC(C)(C#N)Sc1ccc(C)cc1 (stereo not drawn) [compound 32]
[7]; [16]
  % Inhibition 5 DAP VELE: 0%
[7]; [17]
  % Inhibition 13 DAP VELE: 90%
[7]; [18]
  % Inhibition VELE: 65%
[7]; [19]
  % Inhibition 5 DAP VELE: 0%
[7]; [20]
  % Inhibition VELE: 60%
[7]; [21]
  % Inhibition VELE: 70%
[7]; [22]
  % Inhibition VELE: 80%
[7]; in vivo
  % Inhibition 5 DAP VELE: 0%
  % Inhibition 13 DAP VELE: 85%
[2]; [16]
  % Inhibition 5 DAP Corn: 0%
[2]; [17]
  % Inhibition 13 DAP Corn: 75%
[2]; [18]
  % Inhibition Corn: 55%
[2]; [19]
  % Inhibition 5 DAP Corn: 0%
[2]; [20]
  % Inhibition Corn: 35%
[2]; [21]
  % Inhibition Corn: 25%
[2]; [22]
  % Inhibition Corn: 70%
[2]; in vivo
  % Inhibition 5 DAP Corn: 20%
  % Inhibition 13 DAP Corn: 70%
  % Inhibition Corn: 65% and 55% and 45%
[2]; primisulfuron POE + biocides PPI, Tables 8-10
  activity in reducing corn injury: either inactive or weakly active
[6]; [16]
  % Inhibition 5 DAP SHCA: 30%
[6]; [17]
  % Inhibition 13 DAP SHCA: 85%
[6]; [18]
  % Inhibition SHCA: 70%
[6]; [20]
  % Inhibition SHCA: 70%
[6]; [21]
  % Inhibition SHCA: 95%
[6]; [22]
  % Inhibition SHCA: 50%
[6]; in vivo
  % Inhibition 5 DAP SHCA: 30%
  % Inhibition 13 DAP SHCA: 80%

## CCSC(=O)COC(c1ccccc1)c1ccccc1 [Antidote No. 51, Ethanethioic acid, 2-(diphenyl-methoxy)-, S-ethyl ester]
[2]
  antidote activity: most active

## O=C(O)c1sc(Cl)nc1C(F)(F)F [Antidote No. 65, 5-Thiazolecarboxylic acid, 2-chloro-4-(trifluoromethyl)-]
[2]
  antidote activity: slightly more active than other thiazoles tested

## O=C(OCc1ccccc1)c1sc(Cl)nc1C(F)(F)F [compound 7]
[7]; [21]
  % Inhibition VELE: 65%
[7]; […], observed 7 days after POE (Table 35)
  % Inhibition VELE: 75%

## O=C(C(Cl)Cl)N1CCOC12CCCCC2 [Antidote No. 16, 1-Oxa-4-azaspiro<4.5>decane, 4-(dichloroacetyl)-]
[4]; COUNTER 15G + BEACON/co-herbicide combinations, Example 56
  corn injury: reduced corn injury
[4]; COUNTER 15G/BEACON, Example 48
  safening, comparison: not as active as the other safeners
[4]; COUNTER/BEACON (and ACCENT), Examples 49, 50
  protecting corn, comparison: weak in safening effect

— patent publication EP0565593B1, “REDUCING PESTICIDAL INTERACTIONS IN CROPS” (priority 1990, dated 1992)
